Laboratory results reported in patent US7138361B2, “Herbicidal heterocycles” (E. I. du Pont de Nemours and Company, priority 2000, dated 2006).

Legend:
Test in all cases: Test C preemergence
Format in all cases: in vivo
[1] = tested on: crabgrass (Digitaria sanguinalis); conditions: for Plant response rating (0 to 100), Crabgrass: visual evaluation after 12 to 14 days
How it was run: (§1)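 Formulation: non-phytotoxic solvent mix incl. surfactant. Pre: applied right after planting. Post: 1–4-leaf seedlings. Read: visual 0–100, day 12–14, greenhouse.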

[2] = tested on: goosegrass (Eleusine indica); conditions: for Plant response rating (0 to 100), Goosegrass: visual evaluation after 12 to 14 days
How it was run: as §1

[3] = tested on: morningglory (Ipomoea hederacea); conditions: for Plant response rating (0 to 100), Morningglory: Rate 500 g/ha, visual evaluation after 12 to 14 days
How it was run: as §1

[4] = tested on: yellow nutsedge (Cyperus esculentus); conditions: for Plant response rating (0 to 100), Nutsedge: Rate 500 g/ha, visual evaluation after 12 to 14 days
How it was run: as §1

Sunflower = conditions: scale 0 to 100
[5] = Rate 125 g/ha, scale 0 to 100, 0 no effect, 100 complete control
[6] = preemergence, Rate 62 g/ha, scale 0 to 100
[7] = preemergence, Rate 250 g/ha, scale 0 to 100, 0 no effect, 100 complete control
[8] = preemergence, Rate 31 g/ha, scale 0 to 100
[9] = Rate 62 g/ha, scale 0 to 100, 0 no effect, 100 complete control
[10] = preemergence, Rate 125 g/ha, scale 0 to 100, 0 no effect, 100 complete control

Structure (SMILES) | Plant response rating, Crabgrass [1, 5] | Plant response rating, Crabgrass [1, 6] | Plant response rating (0 to 100), Crabgrass ([1]; preemergence, Rate 500 g/ha) | Plant response rating, Crabgrass [1, 7] | Plant response rating, Goosegrass [2, 5] | Plant response rating, Goosegrass [2, 6] | Plant response rating (0 to 100), Goosegrass ([2]; preemergence, Rate 500 g/ha) | Plant response rating, Goosegrass [2, 7] | Plant response rating, Morningglory [3, 5] | Plant response rating, Morningglory [3, 6] | Plant response rating (0 to 100), Morningglory ([3]; preemergence) | Plant response rating, Morningglory [3, 7] | Plant response rating, Nutsedge [4, 5] | Plant response rating, Nutsedge [4, 6] | Plant response rating (0 to 100), Nutsedge ([4]; preemergence) | Plant response rating, Sunflower (Sunflower; Rate 62 g/ha) | Plant response rating, Nutsedge [4, 7] | Plant response rating, Crabgrass [1, 8] | Plant response rating, Goosegrass [2, 8] | Plant response rating, Morningglory [3, 8] | other results
CCC(C)c1ccn(C2CCN(c3cccc(OC)c3)C2=O)n1 (centres unmarked) [Compound 95] | 100 | 100 | 100 | 100 | 100 | 100 | 100 | 100 | 0 | 0 | 0 | 0 | 0 | 0 | 70 | 0 | – | – | – | – | –
CC(C)c1cccc(N2CCC(n3ccc(C(C)(C)C)n3)C2=O)c1 (centres unmarked) [Compound 111] | 100 | 80 | 100 | 100 | 85 | 40 | 100 | 100 | 0 | 0 | 0 | 0 | 0 | 0 | 0 | 0 | 0 | – | – | – | –
COc1cccc(N2CCC(n3ccc(C(C)(C)C)n3)C2=O)c1 (centres unmarked) [Compound 87] | 100 | 100 | 100 | – | 100 | 100 | 100 | – | 0 | 0 | 0 | 0 | 20 | 20 | 20 | 20 | 20 | – | – | – | Plant response rating (0 to 100), Crabgrass ([1]; preemergence, Rate 250 g/ha): 100; Plant response rating (0 to 100), Goosegrass ([2]; preemergence, Rate 250 g/ha): 100
CCCC(C)c1ccn(C2SCN(c3cccc(C(F)(F)F)c3)C2=O)n1 (centres unmarked) [Compound 92] | 80 | 60 | 100 | 100 | 75 | 60 | 100 | 100 | 0 | 0 | 0 | 0 | 0 | 0 | 0 | 0 | 0 | – | – | – | –
CCCC(C)c1ccn(C2SCN(c3cccc(OC(F)(F)F)c3)C2=O)n1 (centres unmarked) [Compound 90] | 100 | 80 | – | 100 | 100 | 100 | – | 100 | 0 | 0 | – | 0 | 0 | 0 | – | 0 | 0 | 80 | 20 | 0 | Plant response rating, Nutsedge [4, 8]: 0; Plant response rating, Sunflower (Sunflower; Rate 31 g/ha): 0
CC(C)Oc1cccc(N2CCC(n3ccc(C(C)(C)C)n3)C2=O)c1 (centres unmarked) [Compound 70] | – | – | 100 | – | – | – | 100 | – | – | – | 40 | 0 | – | – | 0 | – | 0 | 30 | 30 | 0 | Plant response rating, Crabgrass [1, 9]: 100; Plant response rating (0 to 100), Crabgrass ([1]; preemergence, Rate 250 g/ha): 100; Plant response rating, Crabgrass [1, 10]: 100; Plant response rating, Goosegrass [2, 9]: 90; Plant response rating (0 to 100), Goosegrass ([2]; preemergence, Rate 250 g/ha): 100; Plant response rating, Goosegrass [2, 10]: 100; Plant response rating, Morningglory [3, 9]: 20; Plant response rating, Morningglory [3, 10]: 0; Plant response rating, Nutsedge [4, 9]: 0; Plant response rating, Nutsedge [4, 8]: 0; Plant response rating, Nutsedge [4, 10]: 0; Plant response rating, Sunflower (Sunflower; Rate 31 g/ha): 0
CCC(C)Oc1cccc(N2CCC(n3ccc(C(C)(C)C)n3)C2=O)c1 (centres unmarked) [Compound 127] | 70 | 50 | 100 | 100 | 30 | 10 | 100 | 100 | 0 | 0 | 20 | 0 | 0 | 0 | 0 | 0 | 0 | – | – | – | –
CCOc1cccc(N2CCC(n3ccc(C(C)C)n3)C2=O)c1 (centres unmarked) [Compound 128] | 100 | 100 | 100 | 100 | 100 | 100 | 100 | 100 | 60 | 30 | 80 | 70 | 70 | 20 | 100 | 20 | 100 | – | – | – | –
CC(C)OC(=O)c1cccc(N2CCC(n3ccc(C(C)(C)C)n3)C2=O)c1 (centres unmarked) [Compound 124] | 100 | 90 | – | 100 | 40 | 0 | – | 60 | 0 | 0 | – | 0 | 0 | 0 | – | 0 | 0 | 80 | 0 | 0 | Plant response rating, Nutsedge [4, 8]: 0; Plant response rating, Sunflower (Sunflower; Rate 31 g/ha): 0
